The values below come from patent publication US20190030018A1 (Celgene Corporation, priority 2017, published 2019).

Holding throughout (assay): In vitro combination studies, CellTitre-Glo cell viability
One assay has as its system MOLM-13. Conditions: MOLM-13; in combination with Compound 1.
Another assay deals with MV-4-11. The note with it: MV-4-11; in combination with Compound 1.
The test system of a further assay is OCI-AML-2. Conditions: OCI-AML-2; in combination with Compound 1.
In the next assay the test system is F-36-P. Conditions: F-36-P; in combination with Compound 1.
Another assay deals with OCT-AML-3. The note with it: OCI-AML-3; in combination with Compound 1.
The next assay deals with NOMO-1. Conditions: NOMO-1; in combination with Compound 1.
The next assay relates to ML-2. The note with it: ML-2; in combination with Compound 1.
The next assay concerns KG-1. Conditions: KG-1; in combination with Compound 1.
A further assay deals with HNT-34. Conditions: HNT-34; in combination with Compound 1.
The subject of the next assay is HL-60. The note with it: HL-60; in combination with Compound 1.

With `COc1ccc(-c2ccc3c(N4CCOC[C@@H]4C)nc(N4CCOC[C@@H]4C)nc3n2)cc1CO` [AZD8055], the “Synergy analysis for combinations with Compound 1” value (from here on “Synergy analysis for combinations”) in the assay with MOLM-13 was “Yes”; with MV-4-11, “No”; in the assay with OCI-AML-2 it was “Yes”; with F-36-P, “Yes”; in the assay with OCT-AML-3, “Yes”; in the assay with NOMO-1, “Yes”. Also, the “Synergy analysis for combinations” value in the assay with ML-2, in the assay with KG-1, in the assay with HNT-34 and in the assay on HL-60 was “No” each time.

`CO[C@H]1/C=C\C=C(/C)C(=O)NC2=CC(=O)C(NCCN(C)C)=C(C[C@@H](C)C[C@H](OC)[C@H](O)[C@@H](C)/C=C(\C)[C@@H]1OC(N)=O)C2=O` [Alvespimycin]: the “Synergy analysis for combinations” value in the assay with MOLM-13 is reported as “No”; in the assay with MV-4-11, “Yes”; in the assay with OCI-AML-2, “Yes”; in the assay on F-36-P, “No”; in the assay on OCT-AML-3, “No”; in the assay with NOMO-1 it was “No”. Further, the “Synergy analysis for combinations” value in the assay with ML-2, in the assay with KG-1, in the assay with HNT-34 and in the assay with HL-60 was “No” each time.

With `CCN1C(=O)CNc2ncc(-c3ccc(-c4nc[nH]n4)nc3C)nc21` [CC-115, 1-ethyl-7-(2-methyl-6-(1H-1,2,4-triazol-3-yl)pyridin-3-yl)-3,4-dihydropyrazino[2,3-b]pyrazin-2(1H)-one, reference compound], the “Synergy analysis for combinations” value with MOLM-13, with MV-4-11, in the assay on OCI-AML-2, in the assay on F-36-P, in the assay on OCT-AML-3 and in the assay on NOMO-1 was “Yes” in each case. For the same compound, the “Synergy analysis for combinations” value in the assay on ML-2 is “Yes”; with KG-1, “No”; in the assay with HNT-34, “Yes”; in the assay with HL-60 it was “No”.

`CO[C@H]1CC[C@H](N2C(=O)CNc3ncc(-c4ccc(C(C)(C)O)nc4)nc32)CC1` [CC-223, 7-(6-(2-hydroxypropan-2-yl)pyridin-3-yl)-1-((trans)-4-methoxycyclohexyl)-3,4-dihydropyrazino[2,3-b]pyrazin-2(1H)-one, reference compound]: the “Synergy analysis for combinations” value with MOLM-13, in the assay on MV-4-11, in the assay with OCI-AML-2, in the assay on F-36-P, with OCT-AML-3 and with NOMO-1 was “Yes” throughout. Also, the “Synergy analysis for combinations” value in the assay on ML-2 is “Yes”; in the assay on KG-1 it was “No”; in the assay with HNT-34, “No”; with HL-60 it was “No”.

With `CC(C)C[C@H](NC(=O)[C@@H](NC(=O)c1cccc(-c2ccccc2)n1)[C@@H](C)O)B(O)O` [CEP-18770], the “Synergy analysis for combinations” value in the assay on MOLM-13, in the assay on MV-4-11, in the assay with OCI-AML-2, with F-36-P, in the assay with OCT-AML-3 and with NOMO-1 was “No” throughout. The “Synergy analysis for combinations” value in the assay with ML-2, in the assay on KG-1, in the assay with HNT-34 and in the assay on HL-60 was “No” each time.

As for `CC(C)C[C@H](NC(=O)[C@H](CCc1ccccc1)NC(=O)CN1CCOCC1)C(=O)N[C@@H](Cc1ccccc1)C(=O)N[C@@H](CC(C)C)C(=O)[C@@]1(C)CO1` [Carfilzomib], the “Synergy analysis for combinations” value in the assay on MOLM-13, with MV-4-11, with OCI-AML-2, with F-36-P, in the assay with OCT-AML-3 and with NOMO-1 was “No” throughout. Moreover, the “Synergy analysis for combinations” value with ML-2, in the assay on KG-1, in the assay with HNT-34 and in the assay on HL-60 was “No” in each case.

As for `Cn1cc(-c2cc(S(C)(=O)=O)ccc2OCC2CC2)c2ccccc2c1=O` [Compound A, 4-[2-(cyclopropylmethoxy)-5-(methanesulfonyl)phenyl]-2-methylisoquinolin-1(2H)-one, reference compound], the “Synergy analysis for combinations” value in the assay on MOLM-13 is listed as “Yes”; in the assay on MV-4-11, “No”; in the assay with OCI-AML-2 it was “Yes”; in the assay with F-36-P, “Yes”; with OCT-AML-3 it was “Yes”; in the assay with NOMO-1, “Yes”. Moreover, the “Synergy analysis for combinations” value was “Yes” in the assay on ML-2, “No” with KG-1, “No” in the assay on HNT-34 and “No” with HL-60.

For the compound `COc1ccc(-c2c(-c3ccc(C#N)c(F)c3)nc(N3CCC(N)CC3)n(C)c2=O)cc1F` [Compound B, 4-[2-(4-amino-piperidin-1-yl)-5-(3-fluoro-4-methoxy-phenyl)-1-methyl-6-oxo-1,6-dihydropyrimidin-4-yl]-2-fluoro-benzonitrile, reference compound], the “Synergy analysis for combinations” value in the assay with MOLM-13 is reported as “Yes”; in the assay on MV-4-11, “No”; with OCI-AML-2, “No”; in the assay with F-36-P, “Yes”; with OCT-AML-3, “No”; in the assay with NOMO-1, “No”. Besides, the “Synergy analysis for combinations” value in the assay on ML-2, in the assay on KG-1, in the assay with HNT-34 and with HL-60 was “No” throughout.

For the compound `C[C@@H]1C[C@H]2[C@@H]3CCC4=CC(=O)C=C[C@]4(C)[C@@]3(F)[C@@H](O)C[C@]2(C)[C@@]1(O)C(=O)CO` [Dexamethason], the “Synergy analysis for combinations” value in the assay on MOLM-13 is recorded as “No”; in the assay with MV-4-11, “No”; in the assay on OCI-AML-2, “No”; in the assay with F-36-P it was “No”; in the assay with OCT-AML-3, “No”; in the assay on NOMO-1, “Yes”. Also, the “Synergy analysis for combinations” value in the assay on ML-2, in the assay on KG-1, in the assay on HNT-34 and with HL-60 was “No” throughout.

Turning to `CC(C)C[C@H](NC(=O)CNC(=O)c1cc(Cl)ccc1Cl)B(O)O` [Ixazomib], the “Synergy analysis for combinations” value in the assay on MOLM-13, with MV-4-11, in the assay on OCI-AML-2, in the assay on F-36-P, with OCT-AML-3 and in the assay with NOMO-1 was “No” each time. Besides, the “Synergy analysis for combinations” value with ML-2, in the assay on KG-1, in the assay on HNT-34 and in the assay with HL-60 was “No” throughout.

Turning to `CC(C)n1nc(-c2ccc3oc(N)nc3c2)c2c(N)ncnc21` [MLN-0128], the “Synergy analysis for combinations” value is reported as “Yes” in the assay on MOLM-13; “No” in the assay on MV-4-11; “Yes” in the assay on OCI-AML-2; “Yes” in the assay with F-36-P; “No” in the assay with OCT-AML-3; “No” in the assay with NOMO-1. The “Synergy analysis for combinations” value in the assay on ML-2, in the assay with KG-1, in the assay with HNT-34 and in the assay with HL-60 was “No” each time.
